In patent US9365583B2, “Substituted pyrazoles and uses thereof” (Genentech, Inc., priority 2013, dated 2016) one finds Ki data, which are given here for 24 compounds.

By Ki is commonly meant a measure of affinity in units of concentration, obtained from inhibition or displacement. Read a high Ki as a looser hold on the target.

This assay concerns the target T1, N-terminally GST-tagged DLK (catalytic domain amino acid 1-520) (Homo sapiens, UniProt Q12852).
T1 construct: N-terminally GST-tagged DLK (catalytic domain amino acid 1-520); purchased Carna Bioscience
T1 sequence (Q12852 1-520): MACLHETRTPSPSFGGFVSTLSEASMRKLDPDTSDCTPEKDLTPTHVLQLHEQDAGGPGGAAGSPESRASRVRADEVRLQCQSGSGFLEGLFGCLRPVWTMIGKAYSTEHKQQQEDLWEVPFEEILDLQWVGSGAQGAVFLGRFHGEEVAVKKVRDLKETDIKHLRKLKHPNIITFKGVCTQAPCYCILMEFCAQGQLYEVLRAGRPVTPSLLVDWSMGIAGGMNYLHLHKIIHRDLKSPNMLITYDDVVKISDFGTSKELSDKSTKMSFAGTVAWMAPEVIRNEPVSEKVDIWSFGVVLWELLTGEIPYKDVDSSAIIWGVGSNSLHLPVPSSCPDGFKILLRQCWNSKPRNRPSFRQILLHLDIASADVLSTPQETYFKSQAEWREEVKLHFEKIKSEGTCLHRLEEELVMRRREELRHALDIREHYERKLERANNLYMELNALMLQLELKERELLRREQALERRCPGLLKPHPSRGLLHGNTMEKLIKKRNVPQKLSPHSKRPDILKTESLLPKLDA
In words: DLK TR-FRET inhibition assay. It counts as biochemical. Conditions: 5 nM GST-DLK, 40 nM HIS-MKK4 K131M substrate, 30 μM ATP, 60 minutes at ambient temperature. The essentials:
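Phosphorylated MKK4 was quantified by TR-FRET (Eu-labelled anti-phospho-MKK4, D2 anti-HIS; 3 h, 665 and 615 nm emission) after EDTA quench. Reactions held 5 nM GST-tagged DLK catalytic domain (1-520), 40 nM HIS-MKK4 K131M substrate, 30 μM ATP and compound (3-fold series from 20 uM), 60 min, room temperature, pH 7.5.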
The compound `CC(C)n1nc(-c2cnc(N)c(OC(F)F)c2)cc1[C@H]1[C@@H]2C[C@H]3CN(C)C[C@H]3[C@@H]21` (racemic) [compound 163, (±)-3-(difluoromethoxy)-5-(1-isopropyl-5-((3aS,3bR,4S,4aR,5aR)-2-methyloctahydro-1H-cyclopropa[3,4]cyclopenta[1,2-c]pyrrol-4-yl)-1H-pyrazol-3-yl) pyridin-2-amine] gave an inhibition constant (Ki) of 2.8 nM. As to `CC(C)n1nc(-c2cnc(N)c(OC(F)F)c2)cc1[C@H]1[C@@H]2C[C@H](N3CCO[C@H](C)C3)C[C@@H]21` [compound 77, 3-(difluoromethoxy)-5-(1-isopropyl-5-((1R,3r,5S,6R)-3-((R)-2-methylmorpholino)bicyclo[3.1.0]hexan-6-yl)-1H-pyrazol-3-yl) pyridin-2-amine], affinity was put at a Ki of 1.3 nM. Regarding `CC(C)n1nc(-c2cnc(N)c(OC(F)F)c2)cc1[C@H]1[C@@H]2C[C@H](N3CCOC[C@H]3C)C[C@@H]21` [compound 81, 3-(difluoromethoxy)-5-(1-isopropyl-5-((1R,3r,5S,6R)-3-((R)-3-methylmorpholino)bicyclo[3.1.0]hexan-6-yl)-1H-pyrazol-3-yl) pyridin-2-amine], the Ki came out at 1.43 nM. This Ki and that of the compound before are within 1.5-fold of each other.

Turning to `CC(C)n1nc(-c2cnc3cnn([C@@H](C)c4ccccn4)c3c2)cc1[C@H]1[C@@H]2C[C@@H](N3CCOCC3)C[C@@H]21` [compound 32, 4-((1R,3R,5S,6r)-6-(1-isopropyl-3-(1-((S)-1-(pyridin-2-yl)ethyl)-1H-pyrazolo[4,3-b]pyridin-6-yl)-1H-pyrazol-5-yl)bicyclo[3.1.0]hexan-3-yl)morpholine], the Ki was 4.08 nM.

Turning to `CC(C)n1nc(-c2cnc(N)c(OC(F)F)c2)cc1[C@H]1[C@@H]2CC(F)(F)C[C@@H]21` [compound 216, 5-(5-((1R,5S,6r)-3,3-difluorobicyclo [3.1.0]hexan-6-yl)-1-isopropyl-1H-pyrazol-3-yl)-3-(difluoro-methoxy)pyridin-2-amine], affinity was put at a Ki of 6.6 nM. For `COC1CCN([C@H]2C[C@@H]3[C@H](C2)[C@H]3c2cc(-c3cnc(N)c(C(F)(F)F)c3)nn2C(C)C)CC1` [compound 251, 5-(1-isopropyl-5-((1R,3r,5S,6r)-3-(4-methoxypiperidin-1-yl)bicyclo[3.1.0]hexan-6-yl)-1H-pyrazol-3-yl)-3-(trifluoromethyl) pyridin-2-amine], the affinity, expressed as Ki, was 2.7 nM. Compared with the last compound, the Ki is about 2.4-fold lower.

`CC(C)n1nc(-c2cnc(N)c(C(F)(F)F)c2)cc1C1[C@H]2CC(N3CCOCC3)C[C@@H]12` (stereo partly drawn) [compound 76, 5-(1-isopropyl-5-((1R,3s,5S,6r)-3-morpholinobicyclo[3.1.0]hexan-6-yl)-1H-pyrazol-3-yl)-3-(trifluoromethyl)pyridin-2-amine] yielded a Ki of 2.17 nM. In turn, `CO[C@@H]1CCN([C@H]2C[C@@H]3[C@H](C2)[C@H]3c2cc(-c3cnc(N)c(C(F)(F)F)c3)nn2C(C)C)C1` [compound 185, 5-(1-isopropyl-5-((1R,3r,5S,6R)-3-((R)-3-methoxypyrrolidin-1-yl)bicyclo[3.1.0]hexan-6-yl)-1H-pyrazol-3-yl)-3-(trifluoromethyl) pyridin-2-amine] yielded an inhibitory constant (Ki) of 1.6 nM. In turn, “5-(1-isopropyl-5-((1R,3r,5S,6R)- 3-((R)-2-methylmorpholino) bicyclo[3.1.0]hexan-6-yl)-1H- pyrazol-3-yl)-3-(trifluoromethoxy) pyridin-2-amine [compound 12]” displayed a Ki of 1.77 nM. `CC(C)n1nc(-c2cnc(N)c(OC(F)F)c2)cc1C1[C@H]2CC(N3CCOCC(F)C3)C[C@@H]12` (single isomer, unassigned) [compound 173] came in with an inhibitory constant (Ki) of 4.5 nM.

Consider `CC(C)n1nc(-c2cnc(N)c(C(F)(F)F)c2)cc1[C@H]1[C@@H]2C[C@@]3(CCN3CC(F)F)C[C@@H]21` [compound 148, 5-(5-((1′R,2r,5′S,6′r)-1-(2,2-difluoro-ethyl)spiro[azetidine-2,3′-bicyclo[3.1.0]hexan]-6-yl)-1-isopropyl-1H-pyrazol-3-yl)-3-(trifluoro-methyl)pyridin-2-amine], for which the Ki came out at 8.9 nM. Turning to `CO[C@H]1CCN([C@H]2C[C@@H]3[C@H](C2)[C@H]3c2cc(-c3cnc(N)c(C(F)(F)F)c3)nn2CC(F)F)C1` [compound 145, 5-(1-(2,2-difluoroethyl)-5-((1R,3r,5S,6S)-3-((S)-3-methoxypyrrolidin-1-yl)bicyclo[3.1.0]hexan-6-yl)-1H-pyrazol-3-yl)-3-(trifluoro-methyl)pyridin-2-amine], affinity was put at a Ki of 3.3 nM. As for `CC(C)n1nc(-c2cnc3ccn([C@@H](C)c4ccccn4)c3c2)cc1[C@H]1[C@@H]2C[C@@H](N3CCOCC3)C[C@@H]21` [compound 24, 4-((1R,3R,5S,6r)-6-(1-isopropyl-3-(1-((S)-1-(pyridin-2-yl)ethyl)-1H-pyrrolo[3,2-b]pyridin-6-yl)-1H-pyrazol-5-yl)bicyclo[3.1.0]hexan-3-yl)morpholine], the inhibition constant Ki turned out to be 0.34 nM. `CC(C)n1nc(-c2cnc(N)c(C(F)(F)F)c2)cc1[C@H]1[C@@H]2CC3(C[C@@H]21)CN(C)CCO3` (single isomer, unassigned) [compound 197] yielded a Ki of 1.3 nM. Turning to `CC(C)n1nc(-c2cnc(N)c(OCC(F)(F)F)c2)cc1[C@H]1[C@@H]2C[C@@H](N3CCOCC3)C[C@@H]21` [compound 96, 5-(1-isopropyl-5-((1R,3s,5S,6r)-3-morpholinobicyclo[3.1.0]hexan-6-yl)-1H-pyrazol-3-yl)-3-(2,2,2-trifluoroethoxy)pyridin-2-amine], the affinity corresponds to a Ki of 19 nM. Compound `CC(C)n1nc(-c2cnc(N)c(C(=O)N3CCCC3)c2)cc1[C@H]1[C@@H]2C[C@@H](N3CC(F)C3)C[C@@H]21` [compound 106, (2-amino-5-(5-((1R,3s,5S,6r)-3-(3-fluoroazetidin-1-yl)bicyclo [3.1.0]hexan-6-yl)-1-isopropyl-1H-pyrazol-3-yl)pyridin-3-yl) (pyrrolidin-1-yl)methanone] registered a Ki of more than 321 nM. With `CC(C)n1nc(-c2cnc(N)c(OC(F)(F)F)c2)cc1[C@H]1[C@@H]2C[C@@H](N3CCO[C@@H](C)C3)C[C@@H]21` [compound 113, 5-(1-isopropyl-5-((1R,3s,5S,6S)-3-((S)-2-methylmorpholino)bicyclo[3.1.0]hexan-6-yl)-1H-pyrazol-3-yl)-3-(trifluoromethoxy) pyridin-2-amine] the figure was 4.23 nM. Compound `CC(C)n1nc(-c2cnc(N)c(OC(F)F)c2)cc1[C@H]1[C@@H]2C[C@@H](N3CCN(CC(F)F)CC3)C[C@@H]21` [compound 257, 5-(5-((1R,3s,5S,6r)-3-(4-(2,2-difluoro-ethyl)piperazin-1-yl)bicyclo [3.1.0]hexan-6-yl)-1-isopropyl-1H-pyrazol-3-yl)-3-(difluoromethoxy)pyridin-2-amine] returned an inhibition constant (Ki) of 0.7 nM. In the case of `CC(C)n1nc(-c2cnc(N)c(OC(F)F)c2)cc1[C@H]1[C@@H]2C[C@@H](N3CCCN(C)CC3)C[C@@H]21` [compound 205, 3-(difluoromethoxy)-5-(1-isopropyl-5-((1R,3s,5S,6r)-3-(4-methyl-1,4-diazepan-1-yl)bicyclo [3.1.0]hexan-6-yl)-1H-pyrazol-3-yl)pyridin-2-amine], the Ki came to 2.9 nM. In the case of `CC(C)n1nc(-c2cnc(N)c(OC(F)F)c2)cc1[C@@H]1[C@@H]2C[C@@H](O)C[C@@H]21` [compound 123, (1R,3s,5S,6s)-6-(3-(6-amino-5-(difluoromethoxy)pyridin-3-yl)-1-isopropyl-1H-pyrazol-5-yl) bicyclo[3.1.0]hexan-3-ol], the inhibition constant Ki was more than 321 nM. Regarding `CO[C@H]1CCN([C@@H]2C[C@@H]3[C@H](C2)[C@H]3c2cc(-c3cnc(N)c(C(F)(F)F)c3)nn2CC(F)F)C1` [compound 150, 5-(1-(2,2-difluoroethyl)-5-((1R,3s,5S,6S)-3-((S)-3-methoxy-pyrrolidin-1-yl)bicyclo[3.1.0]hexan-6-yl)-1H-pyrazol-3-yl)-3-(trifluoro-methyl)pyridin-2-amine], the Ki came to 3.6 nM. With `CC(C)n1nc(-c2cnc(N)c(C(F)(F)F)c2)cc1[C@H]1[C@@H]2CC(N3CCN4CCOCC4C3)C[C@@H]21` (single isomer, unassigned) [compound 184] the figure was 2.1 nM. `COC1CN([C@H]2C[C@@H]3[C@H](C2)[C@H]3c2cc(-c3cnc(N)c(C(F)(F)F)c3)nn2CC(F)F)C1` [compound 144, 5-(1-(2,2-difluoroethyl)-5-((1R,3r,5S,6r)-3-(3-methoxyazetidin-1-yl)bicyclo[3.1.0]hexan-6-yl)-1H-pyrazol-3-yl)-3-(trifluoro-methyl)pyridin-2-amine]: the Ki worked out at 2.8 nM. Take `COC1CN([C@@H]2C[C@@H]3[C@H](C2)[C@H]3c2cc(-c3cnc(N)c(OC(F)(F)F)c3)nn2C(C)C)C1` [compound 38, 5-(1-isopropyl-5-((1R,3s,5S,6r)-3-(3-methoxyazetidin-1-yl)bicyclo[3.1.0]hexan-6-yl)-1H-pyrazol-3-yl)-3-(trifluoromethoxy) pyridin-2-amine]: the Ki was 1.45 nM.
